Our source for the Activity values is ChEMBL document CHEMBL1123115, “Synthesis and antiviral activity of 11-azapentacyclo[6.2.1.0.0.0]decane” (J Med Chem, 1985).

In one assay the test system is Human alphaherpesvirus 2. The assay is described as follows: Effect on herpes simplex virus HSV-2; Ineffective. The class given is functional, organism-based.
The test system of another assay is Human alphaherpesvirus 1. The assay is described as follows: Effect on herpes simplex virus HSV-1; Ineffective. The assay is classed as functional, organism-based.

As for `C1C2C3CC4C1C1C2NC3C41` (configuration not stated), the Activity entry with Human alphaherpesvirus 2 and in the assay on Human alphaherpesvirus 1 was “Ineffective” each time.
